Source: US20240360122A1, “POLYMORPHIC FORMS AND SALTS OF A GLP-1R AGONIST” (Terns (Suzhou) Biotechnology Co., Ltd., priority 2023, published 2024)
Entries after “also recorded” stand apart in the source; their conditions may differ. Counter-ions that a name gives are not always drawn.

Assays:
Format in all cases: physicochemical
[1] = Solid state stability at 25° C./60% RH and 40° C./75% RH for 1 week; conditions: for HPLC peak Area, RRT 1.00: main peak
Procedure: Each sample was added into a glass vial, sealed by parafilm with several holes, and kept under tested conditions. After one week, samples were taken for XRPD and HPLC purity test.

[2] = Kinetic solubility in water and bio-relevant media (SGF, FaSSIF, FeSSIF) at 37° C.; conditions: for S: Solubility: calculated by freeform; for FC: Form change: residual solids by XRPD; for solubility at 2 h: highest solubility
How it was run: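 Compound rolled at 37 °C (~25 rpm) in water, SGF (pH 1.8, NaCl, Triton X-100), FaSSIF (pH 6.5 phosphate, SIF powder) or FeSSIF (pH 5.0 acetate, SIF powder). Samples at 1, 2, 4 and 24 h were centrifuged and 0.45 μm-filtered; filtrate concentration and pH measured, residual solid checked by XRPD.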

[3] = pH solubility in pH 1.0-8.0 buffers at RT; conditions: thermodynamic from solid; for solubility: pH buffers, 2 and 24 hours
Procedure: The procedures were listed below:
1. […] Add 2 ml, of the corresponding medium.
2. Mixed well and stirred at RT (1000 rpm). Check the pH and adjust it back to the target pH after dosing.
3. Sampled after 2 hours and 24 hours. The supernatant was isolated by centrifugation (12000 rpm, 5 min) and filtration (0.22 μm, PTFE) for pH and HPLC test.

[4] = Slurry competition among Meglumine salt Type A/B/C; conditions: slurry competition in DMSO/EtOAc (1:6, v/v), RT and 50° C.
Procedure: The detailed procedures are as following:
Add 1 mL corresponding solvent.
2) Magnetically stir at RT or 50° C. for 1 day. Filter through 0.45 μm PTFE filter to obtain clear solution.
4) Magnetically stir at RT or 50° C. for 1 day. Test XRPD of the wet cake.

N#Cc1ccc(COc2cccc(C3CCN(Cc4nc5ccc(C(=O)O)cc5n4Cc4cncs4)CC3)n2)c(F)c1 [Meglumine salt Type A]
HPLC peak Area, RRT 0.70 ([1]; 25° C./60% RH, 1 week): 0.07%
HPLC peak Area, RRT 0.73 ([1]; 25° C./60% RH, 1 week): 0.14%
HPLC peak Area, RRT 0.80 ([1]; 25° C./60% RH, 1 week): 0.05%
HPLC peak Area, RRT 0.83 ([1]; 25° C./60% RH, 1 week): 1.93%
HPLC peak Area, RRT 0.90 ([1]; 25° C./60% RH, 1 week): 0.12%
HPLC peak Area, RRT 0.99 ([1]; 25° C./60% RH, 1 week): <0.05%
HPLC peak Area, RRT 1.05 ([1]; 25° C./60% RH, 1 week): 0.28%
HPLC peak Area, RRT 1.10 ([1]; 25° C./60% RH, 1 week): 0.23%
HPLC peak Area, RRT 1.12 ([1]; 25° C./60% RH, 1 week): <0.05%
HPLC peak Area, RRT 1.15 ([1]; 25° C./60% RH, 1 week): 0.11%
HPLC peak Area, RRT 1.34 ([1]; 25° C./60% RH, 1 week): 0.08%
HPLC peak Area, RRT 1.00 ([1]; 25° C./60% RH, 1 week): 96.98%
Form change ([1]; 25° C./60% RH/Open/1 week): No
Purity ([1]; 25° C./60% RH/Open/1 week): 96.98 Area %
solid-state stability: form change and purity decrease ([1]; 25° C./60% RH/open and 40° C./75% RH/open, 1 week): no form change or significant purity decrease
HPLC peak Area, RRT 0.70 ([1]; 40° C./75% RH, 1 week): 0.06%
HPLC peak Area, RRT 0.73 ([1]; 40° C./75% RH, 1 week): 0.15%
HPLC peak Area, RRT 0.80 ([1]; 40° C./75% RH, 1 week): 0.05%
HPLC peak Area, RRT 0.83 ([1]; 40° C./75% RH, 1 week): 1.96%
HPLC peak Area, RRT 0.90 ([1]; 40° C./75% RH, 1 week): 0.11%
HPLC peak Area, RRT 0.99 ([1]; 40° C./75% RH, 1 week): <0.05%
HPLC peak Area, RRT 1.05 ([1]; 40° C./75% RH, 1 week): 0.28%
HPLC peak Area, RRT 1.10 ([1]; 40° C./75% RH, 1 week): 0.34%
HPLC peak Area, RRT 1.12 ([1]; 40° C./75% RH, 1 week): <0.05%
HPLC peak Area, RRT 1.15 ([1]; 40° C./75% RH, 1 week): 0.13%
HPLC peak Area, RRT 1.34 ([1]; 40° C./75% RH, 1 week): 0.05%
HPLC peak Area, RRT 1.00 ([1]; 40° C./75% RH, 1 week): 96.88%
Form change ([1]; 40° C./75% RH/Open/1 week): No
Purity ([1]; 40° C./75% RH/Open/1 week): 96.88 Area %
HPLC peak Area, RRT 0.70 ([1]; Initial): 0.07%
HPLC peak Area, RRT 0.73 ([1]; Initial): 0.13%
HPLC peak Area, RRT 0.80 ([1]; Initial): 0.05%
HPLC peak Area, RRT 0.83 ([1]; Initial): 1.95%
HPLC peak Area, RRT 0.90 ([1]; Initial): 0.12%
HPLC peak Area, RRT 0.99 ([1]; Initial): 0.11%
HPLC peak Area, RRT 1.05 ([1]; Initial): 0.28%
HPLC peak Area, RRT 1.10 ([1]; Initial): 0.24%
HPLC peak Area, RRT 1.12 ([1]; Initial): 0.05%
HPLC peak Area, RRT 1.15 ([1]; Initial): 0.11%
HPLC peak Area, RRT 1.34 ([1]; Initial): 0.16%
Purity ([1]; Initial): 96.73 Area %
HPLC peak Area, RRT 1.00 ([1]; Initial): 96.73%
S: Solubility ([2]; FaSSIF, 37° C., 1 hr): 900 µg/mL
FC: Form change ([2]; FaSSIF, 37° C., 1 hr): Yes
S: Solubility ([2]; FaSSIF, 37° C., 2 hrs): 1300 µg/mL
FC: Form change ([2]; FaSSIF, 37° C., 2 hrs): Yes
S: Solubility ([2]; FaSSIF, 37° C., 4 hrs): 720 µg/mL
FC: Form change ([2]; FaSSIF, 37° C., 4 hrs): Yes
S: Solubility ([2]; FaSSIF, 37° C., 24 hrs): 70 µg/mL
FC: Form change ([2]; FaSSIF, 37° C., 24 hrs): Yes
solubility at 2 h ([2]; FaSSIF, 37 °C, pH 6.5, fassif, thermodynamic from solid, FaSSIF, 37° C., read-out: solubility in FaSSIF): 1300 µg/mL
S: Solubility ([2]; FeSSIF, 37° C., 1 hr): 170 µg/mL
FC: Form change ([2]; FeSSIF, 37° C., 1 hr): Yes
S: Solubility ([2]; FeSSIF, 37° C., 2 hrs): 170 µg/mL
FC: Form change ([2]; FeSSIF, 37° C., 2 hrs): Yes
S: Solubility ([2]; FeSSIF, 37° C., 4 hrs): 86 µg/mL
FC: Form change ([2]; FeSSIF, 37° C., 4 hrs): Yes
S: Solubility ([2]; FeSSIF, 37° C., 24 hrs): 27 µg/mL
FC: Form change ([2]; FeSSIF, 37° C., 24 hrs): Yes
S: Solubility ([2]; H2O, 37° C., 1 hr): >8600 µg/mL
S: Solubility ([2]; H2O, 37° C., 2 hrs): >8900 µg/mL
S: Solubility ([2]; H2O, 37° C., 4 hrs): >8300 µg/mL
S: Solubility ([2]; H2O, 37° C., 24 hrs): 7000 µg/mL
FC: Form change ([2]; H2O, 37° C., 24 hrs): Yes
solubility compared with the other selected salts and Freeform Type C ([2]; H2O, SGF and FaSSIF, 37° C.): higher solubility than other salts and Freeform Type C; also recorded: higher solubility in H2O, SGF and FaSSIF
S: Solubility ([2]; SGF, 37° C., 1 hr): 380 µg/mL
FC: Form change ([2]; SGF, 37° C., 1 hr): Yes
S: Solubility ([2]; SGF, 37° C., 2 hrs): 720 µg/mL
FC: Form change ([2]; SGF, 37° C., 2 hrs): Yes
S: Solubility ([2]; SGF, 37° C., 4 hrs): 680 µg/mL
FC: Form change ([2]; SGF, 37° C., 4 hrs): Yes
S: Solubility ([2]; SGF, 37° C., 24 hrs): 290 µg/mL
FC: Form change ([2]; SGF, 37° C., 24 hrs): Yes
solubility at 2 h ([2]; SGF, 37 °C, pH 1.8, simulated gastric fluid, thermodynamic from solid, SGF, 37° C., read-out: solubility in SGF): 720 µg/mL
form change of residual solids (XRPD) after solubility test ([2]; all the media (H2O, SGF, FaSSIF, FeSSIF), after 24 hrs): form change was observed
Kinetic Solubility ([2]; in H2O, SGF and FaSSIF, comparison among selected salts and Freeform Type C): 1) In H2O, SGF and FaSSIF, Meglumine salt Type A exhibited higher solubility than other salts and Freeform Type C;
solubility ([2]; water, 37 °C, thermodynamic from solid, H2O, at 1, 2 and 4 hrs): > 8300 µg/mL
solubility ([2]; water, 37 °C, thermodynamic from solid, H2O, throughout the 24-hour process): ≥ 7000 µg/mL
solubility at 24 h ([2]; water, 37 °C, water, thermodynamic from solid, H2O, 37° C., at 24 hrs, read-out: solubility in H2O): 7000 µg/mL
solubility at 2 h ([3]; pH 3.5 buffer, pH 3.5, aqueous buffer, LOQ = 0.0001 mg/mL): 21 µg/mL
solubility at 2 h ([3]; pH 4.5 buffer, pH 4.5, aqueous buffer, LOQ = 0.0001 mg/mL): 3.7 µg/mL
solubility at 24 h ([3]; pH 4.5 buffer, pH 4.5, aqueous buffer, 24 Hours, LOQ = 0.0001 mg/mL): 0.1 µg/mL
solubility at 2 h ([3]; pH 5.5 buffer, pH 5.5, aqueous buffer, LOQ = 0.0001 mg/mL): 2.8 µg/mL
solubility ([3]; pH 1, aqueous buffer, pH 1.0 and 8.0 buffers): 150 to 1300 µg/mL
solubility ([3]; pH 2, aqueous buffer, pH 2.0 and 6.8 buffers): 16 to 200 µg/mL
solubility ([3]; pH 3.5, aqueous buffer, pH 3.5, 4.5 and 5.5 buffers): ≤ 21 µg/mL
thermodynamic stability relationship among Meglumine salt forms [4]: thermodynamically more stable anhydrate; also recorded: more thermodynamically stable form; also recorded: thermodynamically more stable form
